According to ChEMBL document CHEMBL5316328, “Discovery of AXL Degraders with Improved Potencies in Triple-Negative Breast Cancer (TNBC) Cells” (J Med Chem, 2023):
Calls of active or inactive are those of the source. No cut-off for these calls is given here.

Tests used:
MDA-MB-231 [1] = test: Induction of apoptosis in human MDA-MB-231 cells assessed as necrotic cells at 33.3 nM incubated for 48 hrs by Annexin V-PE staining based flow cytometric analysis (reference value: 2.64 to 3.23%); format: functional
MDA-MB-231 [2] = test: Induction of apoptosis in human MDA-MB-231 cells assessed as viable cells at 300 nM incubated for 48 hrs by Annexin V-PE staining based flow cytometric analysis (reference value: 92.59 to 92.71%); format: functional; details: read-out: Activity
[3] = Toxicity in Balb/c nude mouse xenografted with human MDA-MB-231 cells assessed as effect on body weight at 10 to 20 mg/kg, ip administered for 22 days and measured 24 hrs post last dose; format: organism-based; details: in vivo, 552 h, dose 10-20 mg/kg, time 23 day
MDA-MB-231 [4] = test: Induction of cell cycle arrest in human MDA-MB-231 cells assessed as decrease in cyclin B1 level at 11.1 to 300 nM by Western blot analysis; format: functional, cell-based; details: dose 11.1-300 nM
[5] = molecular target: T1, Protein cereblon/Tyrosine-protein kinase receptor UFO (Homo sapiens, UniProt P30530+Q96SW2); test: PROTAC activity at CRBN/AXL in human MDA-MB-231 cells assessed as induction of AXL degradation by measuring maximal efficacy at 0.08 uM incubated for 24 hrs by Western blot analysis relative to control; format: cell-based
T1 sequence (P30530 26-894 limits assumed): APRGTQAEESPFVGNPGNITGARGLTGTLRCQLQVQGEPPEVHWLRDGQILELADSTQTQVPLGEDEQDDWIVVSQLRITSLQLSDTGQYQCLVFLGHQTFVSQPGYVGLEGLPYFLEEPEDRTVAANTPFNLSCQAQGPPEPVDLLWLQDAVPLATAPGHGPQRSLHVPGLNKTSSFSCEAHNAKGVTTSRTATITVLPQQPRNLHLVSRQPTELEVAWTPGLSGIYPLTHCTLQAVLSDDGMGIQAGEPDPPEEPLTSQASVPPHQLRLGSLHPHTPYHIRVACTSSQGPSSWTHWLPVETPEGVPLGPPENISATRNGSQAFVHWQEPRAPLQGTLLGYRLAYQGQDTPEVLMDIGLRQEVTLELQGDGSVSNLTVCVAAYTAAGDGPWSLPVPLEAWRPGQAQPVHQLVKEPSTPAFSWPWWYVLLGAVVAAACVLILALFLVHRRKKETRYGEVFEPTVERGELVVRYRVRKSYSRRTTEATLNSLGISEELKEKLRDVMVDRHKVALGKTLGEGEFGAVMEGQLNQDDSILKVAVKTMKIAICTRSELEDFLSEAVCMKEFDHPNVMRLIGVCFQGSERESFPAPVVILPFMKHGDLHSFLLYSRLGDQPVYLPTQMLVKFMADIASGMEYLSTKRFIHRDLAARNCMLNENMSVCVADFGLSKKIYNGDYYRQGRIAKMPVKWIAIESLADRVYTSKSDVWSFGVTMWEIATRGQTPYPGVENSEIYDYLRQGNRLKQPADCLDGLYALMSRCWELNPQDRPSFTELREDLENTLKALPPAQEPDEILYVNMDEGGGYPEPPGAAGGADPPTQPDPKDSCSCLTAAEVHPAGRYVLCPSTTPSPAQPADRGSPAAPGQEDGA
T1 sequence (Q96SW2 whole entry partner): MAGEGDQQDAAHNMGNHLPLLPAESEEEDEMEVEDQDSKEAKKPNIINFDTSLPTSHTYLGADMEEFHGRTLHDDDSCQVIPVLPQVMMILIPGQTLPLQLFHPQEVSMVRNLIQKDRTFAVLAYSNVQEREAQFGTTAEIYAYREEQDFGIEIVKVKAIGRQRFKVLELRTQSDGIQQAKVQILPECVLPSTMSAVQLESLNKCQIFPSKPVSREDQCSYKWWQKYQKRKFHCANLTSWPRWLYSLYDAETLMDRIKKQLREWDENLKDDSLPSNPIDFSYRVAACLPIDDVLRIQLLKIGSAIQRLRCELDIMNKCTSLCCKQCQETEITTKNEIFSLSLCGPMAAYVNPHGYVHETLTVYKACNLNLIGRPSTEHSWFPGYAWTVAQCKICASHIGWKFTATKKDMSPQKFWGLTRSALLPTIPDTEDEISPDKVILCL

[6] = molecular target: T1, Protein cereblon/Tyrosine-protein kinase receptor UFO; test: PROTAC activity at CRBN/AXL in human MDA-MB-231 cells assessed as induction of AXL degradation at 40 nM preincubated with MG-132 for 2 hrs followed by compound treatment and measured after 24 hrs by Western blot analysis; format: cell-based
MDA-MB-231 [7] = test: Induction of apoptosis in human MDA-MB-231 cells assessed as early apoptotic cells at 300 nM incubated for 48 hrs by Annexin V-PE staining based flow cytometric analysis (reference value: 3.95 to 3.74%); format: functional
MDA-MB-231 [8] = test: Antitumor activity against human MDA-MB-231 cells xenografted in Balb/c nude mouse assessed as tumor growth inhibition at 20 mg/kg, ip administered for 22 days and measured 24 hrs post last dose relative to control; format: functional; details: MDA-MB-231, 552 h, time 23 day, read-out: TGI
MDA-MB-231 [9] = test: Induction of apoptosis in human MDA-MB-231 cells assessed as late apoptotic cells at 300 nM incubated for 48 hrs by Annexin V-PE staining based flow cytometric analysis (reference value: 0.32 to 0.82%); format: functional
MDA-MB-231 [10] = test: Antiproliferative activity against human MDA-MB-231 cells assessed as reduction in cell viability preincubated with N-(4-((6,7-dimethoxyquinazolin-4-yl)oxy)-3-fluorophenyl)-6-ethyl-1,2-dimethyl-4-oxo-1,4-dihydroquinoline-3-carboxamide for 6 hrs followed by compound treatment and measured after 24 hrs by CCK8 assay; format: functional, cell-based
MDA-MB-231 [11] = test: Induction of cell cycle arrest in human MDA-MB-231 cells assessed as S phase cells at 300 nM incubated for 24 hrs by PI staining based flow cytometric analysis (reference value: 9.64 to 10.79%); format: functional
MDA-MB-231 [12] = test: Induction of apoptosis in human MDA-MB-231 cells assessed as viable cells at 33.3 nM incubated for 48 hrs by Annexin V-PE staining based flow cytometric analysis (reference value: 92.59 to 92.71%); format: functional; details: read-out: Activity
MDA-MB-231 [13] = test: Induction of apoptosis in human MDA-MB-231 cells assessed as late apoptotic cells at 100 nM incubated for 48 hrs by Annexin V-PE staining based flow cytometric analysis (reference value: 0.32 to 0.82%); format: functional
MDA-MB-231 [14] = test: Induction of cell cycle arrest in human MDA-MB-231 cells assessed as accumulation of cell at G2/M phase at 100 nM incubated for 24 hrs by PI staining based flow cytometric analysis (reference value: 24.34 to 24.44%); format: functional
Homo sapiens = organism: Homo sapiens; test: Antitumor activity against patient-derived breast cancer organoid assessed as decrease in structure density at 5 uM incubated for 120 hrs by bright-field imaging microscopic analysis; format: functional, tissue-based
MDA-MB-231 [15] = test: Inhibition of cell invasion in human MDA-MB-231 cells at 3.7 to 100 nM incubated for 18 hrs by transwell assay; format: functional, cell-based; details: dose 3.7-100 nM
[16] = molecular target: T1, Protein cereblon/Tyrosine-protein kinase receptor UFO; test: PROTAC activity at CRBN/AXL in human MDA-MB-231 cells assessed as induction of AXL degradation by measuring half-life of AXL incubated upto 20 hrs in the presence of cycloheximide by Western blot analysis; format: cell-based
MDA-MB-231 [17] = test: Induction of apoptosis in human MDA-MB-231 cells assessed as viable cells at 100 nM incubated for 48 hrs by Annexin V-PE staining based flow cytometric analysis (reference value: 92.59 to 92.71%); format: functional; details: read-out: Activity
MDA-MB-231 [18] = test: Induction of apoptosis in human MDA-MB-231 cells assessed as necrotic cells at 100 nM incubated for 48 hrs by Annexin V-PE staining based flow cytometric analysis (reference value: 2.64 to 3.23%); format: functional
[19] = molecular target: Serine/threonine-protein kinase AKT (Homo sapiens) (UniProt P31751+Q9Y243+P31749); test: Inhibition of AKT phosphorylation in human MDA-MB-231 incubated for 18 hrs by Western blot analysis; format: cell-based; details: dose 1.2-100 nM
Sequence of Serine/threonine-protein kinase AKT (Homo sapiens) (P31749 whole entry, looked up): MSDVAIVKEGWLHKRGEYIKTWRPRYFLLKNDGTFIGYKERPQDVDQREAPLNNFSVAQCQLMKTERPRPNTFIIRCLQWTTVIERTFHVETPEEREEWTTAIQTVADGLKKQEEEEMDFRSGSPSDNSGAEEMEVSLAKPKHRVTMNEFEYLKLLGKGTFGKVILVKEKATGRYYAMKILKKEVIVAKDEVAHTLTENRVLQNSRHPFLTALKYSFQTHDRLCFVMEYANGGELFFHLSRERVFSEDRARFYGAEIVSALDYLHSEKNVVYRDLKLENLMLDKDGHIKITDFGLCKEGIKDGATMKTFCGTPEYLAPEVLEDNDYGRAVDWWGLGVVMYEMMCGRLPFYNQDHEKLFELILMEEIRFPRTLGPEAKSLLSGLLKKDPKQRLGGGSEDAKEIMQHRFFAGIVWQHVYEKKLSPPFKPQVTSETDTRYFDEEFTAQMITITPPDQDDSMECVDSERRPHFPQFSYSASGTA
Sequence of Serine/threonine-protein kinase AKT (Homo sapiens) (P31751 whole entry, looked up): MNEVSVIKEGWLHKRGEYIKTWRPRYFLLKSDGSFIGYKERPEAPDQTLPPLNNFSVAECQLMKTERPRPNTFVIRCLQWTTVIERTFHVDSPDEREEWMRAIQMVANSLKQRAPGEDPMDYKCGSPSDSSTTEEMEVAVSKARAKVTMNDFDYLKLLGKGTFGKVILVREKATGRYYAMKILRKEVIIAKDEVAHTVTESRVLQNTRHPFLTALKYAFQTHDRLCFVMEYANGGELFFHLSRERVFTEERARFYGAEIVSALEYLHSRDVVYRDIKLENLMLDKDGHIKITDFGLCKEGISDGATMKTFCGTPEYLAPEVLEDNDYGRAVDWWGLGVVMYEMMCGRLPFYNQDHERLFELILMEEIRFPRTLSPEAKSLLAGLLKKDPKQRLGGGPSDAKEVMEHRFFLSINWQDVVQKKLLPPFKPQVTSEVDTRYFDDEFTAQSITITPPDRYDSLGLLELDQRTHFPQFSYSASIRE
Sequence of Serine/threonine-protein kinase AKT (Homo sapiens) (Q9Y243 whole entry, looked up): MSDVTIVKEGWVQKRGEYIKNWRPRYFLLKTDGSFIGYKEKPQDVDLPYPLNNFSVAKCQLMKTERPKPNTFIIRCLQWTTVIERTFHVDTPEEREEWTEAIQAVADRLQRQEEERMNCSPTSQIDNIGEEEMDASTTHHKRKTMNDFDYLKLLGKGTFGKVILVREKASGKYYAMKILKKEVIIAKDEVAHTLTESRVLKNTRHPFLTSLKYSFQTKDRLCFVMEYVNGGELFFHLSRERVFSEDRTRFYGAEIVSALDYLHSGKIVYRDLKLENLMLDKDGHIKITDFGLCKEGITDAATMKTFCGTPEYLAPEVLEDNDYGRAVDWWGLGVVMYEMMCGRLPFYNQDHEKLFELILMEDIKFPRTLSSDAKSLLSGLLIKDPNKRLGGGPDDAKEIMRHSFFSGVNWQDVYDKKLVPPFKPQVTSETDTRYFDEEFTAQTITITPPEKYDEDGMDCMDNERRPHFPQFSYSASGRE

[20] = molecular target: T2, E3 ubiquitin-protein ligase ZFP91 (Homo sapiens) (UniProt Q96JP5); test: Induction of ZFP91 degradation in human MDA-MB-231 cells at 10 uM incubated for 24 hrs by Western blot analysis; format: cell-based
T2 sequence (whole entry): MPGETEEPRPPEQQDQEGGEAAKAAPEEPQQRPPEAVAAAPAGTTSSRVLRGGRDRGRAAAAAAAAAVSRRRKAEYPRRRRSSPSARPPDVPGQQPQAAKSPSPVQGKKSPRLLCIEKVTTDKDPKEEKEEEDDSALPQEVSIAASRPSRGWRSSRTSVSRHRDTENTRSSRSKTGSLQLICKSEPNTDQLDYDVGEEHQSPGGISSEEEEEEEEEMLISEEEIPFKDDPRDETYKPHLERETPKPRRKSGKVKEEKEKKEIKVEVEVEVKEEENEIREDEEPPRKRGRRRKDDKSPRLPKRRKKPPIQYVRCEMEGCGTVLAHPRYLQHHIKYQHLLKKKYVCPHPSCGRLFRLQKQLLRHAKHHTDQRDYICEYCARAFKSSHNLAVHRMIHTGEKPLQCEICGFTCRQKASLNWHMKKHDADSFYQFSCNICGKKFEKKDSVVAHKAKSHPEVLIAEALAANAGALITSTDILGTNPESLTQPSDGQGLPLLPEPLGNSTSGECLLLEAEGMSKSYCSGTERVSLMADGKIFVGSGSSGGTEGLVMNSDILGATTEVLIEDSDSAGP

MDA-MB-231 [21] = test: Induction of cell cycle arrest in human MDA-MB-231 cells assessed as decrease in CDK2 level at 11.1 to 300 nM by Western blot analysis; format: functional, cell-based; details: dose 11.1-300 nM
MDA-MB-231 [22] = test: Induction of cell cycle arrest in human MDA-MB-231 cells assessed as G0/G1 phase cells at 100 nM incubated for 24 hrs by PI staining based flow cytometric analysis (reference value: 63.32 to 64.94%); format: functional
MDA-MB-231 [23] = test: Induction of apoptosis in human MDA-MB-231 cells assessed as early apoptotic cells at 33.3 nM incubated for 48 hrs by Annexin V-PE staining based flow cytometric analysis (reference value: 3.95 to 3.74%); format: functional
MDA-MB-231 [24] = test: Induction of apoptosis in human MDA-MB-231 cells assessed as downregulation of caspase-9 expression by Western blot analysis; format: functional, cell-based; details: dose 11.1-300 nM

## CCc1ccc2c(c1)c(=O)c(C(=O)Nc1ccc(Oc3ncnc4cc(OCCCCCC(=O)Nc5ccc6c(c5)CN(C5CCC(=O)NC5=O)C6=O)c(OC)cc34)c(F)c1)c(C)n2C (stereo not given)
MDA-MB-231 [1]
  Activity: 1.2%
MDA-MB-231 [2]
  viability at 0.3 µM: 74.1%
[3]
  Activity: Non-Toxic
MDA-MB-231 [4]
  Activity: Active
[5]
  Emax: 80.5%
[6]
  Activity: inactive
MDA-MB-231 [7]
  Activity: 20.49%
MDA-MB-231 [8]
  inhibition in vivo at 20 mg/kg: 62.5%
MDA-MB-231 [9]
  Activity: 0.79%
MDA-MB-231 [10]
  Activity: inactive
MDA-MB-231 [11]
  Activity: 16.29%
MDA-MB-231 [12]
  viability at 0.0333 µM: 91.5%
MDA-MB-231 [13]
  Activity: 0.88%
MDA-MB-231 [14]
  Activity: 31.16%
Homo sapiens
  Activity: Active
MDA-MB-231 [15]
  inhibition: Active
[16]
  T1/2: 8 h
MDA-MB-231 [17]
  viability at 0.1 µM: 83.4%
MDA-MB-231 [18]
  Activity: 1.17%
[19]
  inhibition: Dose-Dependent Effect
[20]
  Activity: inactive
MDA-MB-231 [21]
  Activity: Active
MDA-MB-231 [22]
  Activity: 46.81%
MDA-MB-231 [23]
  Activity: 6.69%
MDA-MB-231 [24]
  Activity: Dose-Dependent Effect
